Here are results for one compound from paper PMC5361737, “Potent and Selective KDM5 Inhibitor Stops Cellular Demethylation of H3K4me3 at Transcription Start Sites and Proliferation of MM1S Myeloma Cells” (Cell Chemical Biology, 2017).

Structures are written as SMILES.

One data set has as its target VPAC1 (VIP1) (h) (Homo sapiens, UniProt P32241). Put plainly: Cerep Express Panel, agonist radioligand. The following applies: read-out: % Inhibition of reference (10 µM). It counts as binding.
The target of a further data set is T1, dopamine transporter (h) (Homo sapiens, UniProt Q01959).
T1 construct: CEREP
T1 sequence (Q01959 whole entry): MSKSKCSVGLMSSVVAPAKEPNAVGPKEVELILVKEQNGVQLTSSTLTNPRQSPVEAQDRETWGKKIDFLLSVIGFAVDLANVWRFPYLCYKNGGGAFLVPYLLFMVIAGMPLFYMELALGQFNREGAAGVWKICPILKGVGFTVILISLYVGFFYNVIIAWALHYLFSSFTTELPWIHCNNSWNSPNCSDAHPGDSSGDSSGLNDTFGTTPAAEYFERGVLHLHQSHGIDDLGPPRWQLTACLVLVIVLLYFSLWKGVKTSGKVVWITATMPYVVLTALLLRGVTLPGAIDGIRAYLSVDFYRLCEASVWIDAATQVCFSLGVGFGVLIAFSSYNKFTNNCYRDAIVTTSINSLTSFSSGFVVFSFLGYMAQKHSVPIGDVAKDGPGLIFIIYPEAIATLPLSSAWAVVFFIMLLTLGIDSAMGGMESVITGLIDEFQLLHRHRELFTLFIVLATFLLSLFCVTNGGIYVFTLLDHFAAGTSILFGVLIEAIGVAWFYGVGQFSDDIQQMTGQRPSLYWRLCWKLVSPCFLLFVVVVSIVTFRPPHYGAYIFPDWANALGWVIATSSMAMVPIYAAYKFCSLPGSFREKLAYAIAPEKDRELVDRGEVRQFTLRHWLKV
The experiment in a line: Cerep Express Panel, antagonist radioligand. It counts as binding. The following applies: read-out: % Inhibition of reference (10 µM).

In the next data set the target is CB1 (h) (Homo sapiens, UniProt P21554). Put plainly: Cerep Express Panel, agonist radioligand. Format: binding. The conditions noted are these: read-out: % Inhibition of reference (10 µM).
CB1 (h), sequence (P21554 whole entry): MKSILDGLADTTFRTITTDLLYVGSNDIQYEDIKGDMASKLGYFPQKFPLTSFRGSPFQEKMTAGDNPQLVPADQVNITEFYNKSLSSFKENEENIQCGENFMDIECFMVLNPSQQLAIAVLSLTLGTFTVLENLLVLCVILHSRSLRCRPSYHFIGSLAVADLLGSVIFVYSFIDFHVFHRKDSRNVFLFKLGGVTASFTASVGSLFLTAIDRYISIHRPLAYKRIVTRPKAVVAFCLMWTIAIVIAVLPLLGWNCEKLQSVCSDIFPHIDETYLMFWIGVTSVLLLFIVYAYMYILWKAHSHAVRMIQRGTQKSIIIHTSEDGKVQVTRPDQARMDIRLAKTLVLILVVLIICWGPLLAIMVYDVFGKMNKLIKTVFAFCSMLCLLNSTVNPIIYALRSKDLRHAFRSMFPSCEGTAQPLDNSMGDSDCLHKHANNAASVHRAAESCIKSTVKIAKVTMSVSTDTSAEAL
Another data set deals with 5-HT1B (Rattus norvegicus, UniProt P28564). Put plainly: Cerep Express Panel, antagonist radioligand. Format: binding. The following applies: read-out: % Inhibition of reference (10 µM).
5-HT1B, sequence (P28564 whole entry): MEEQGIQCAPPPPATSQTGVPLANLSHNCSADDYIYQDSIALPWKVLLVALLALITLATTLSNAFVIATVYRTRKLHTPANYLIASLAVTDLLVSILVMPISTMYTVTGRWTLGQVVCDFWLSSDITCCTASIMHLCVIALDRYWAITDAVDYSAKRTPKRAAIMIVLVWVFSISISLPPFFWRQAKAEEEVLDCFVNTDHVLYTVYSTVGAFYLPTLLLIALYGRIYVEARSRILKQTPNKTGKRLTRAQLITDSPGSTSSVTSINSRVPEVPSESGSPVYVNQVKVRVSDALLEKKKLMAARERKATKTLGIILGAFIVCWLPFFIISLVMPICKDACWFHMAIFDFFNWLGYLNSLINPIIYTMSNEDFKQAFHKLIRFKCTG
For another data set, the system named is alpha 1 (non-selective). Put plainly: Cerep Express Panel, antagonist radioligand. It counts as binding.
A further data set has as its target 5-HT1A (h) (Homo sapiens, UniProt P08908). Put plainly: Cerep Express Panel, agonist radioligand. Format: binding. The following applies: read-out: % Inhibition of reference (10 µM).
In a further data set the target is T2, KDM2A (Homo sapiens, UniProt Q9Y2K7).
T2 sequence (Q9Y2K7 1-1162): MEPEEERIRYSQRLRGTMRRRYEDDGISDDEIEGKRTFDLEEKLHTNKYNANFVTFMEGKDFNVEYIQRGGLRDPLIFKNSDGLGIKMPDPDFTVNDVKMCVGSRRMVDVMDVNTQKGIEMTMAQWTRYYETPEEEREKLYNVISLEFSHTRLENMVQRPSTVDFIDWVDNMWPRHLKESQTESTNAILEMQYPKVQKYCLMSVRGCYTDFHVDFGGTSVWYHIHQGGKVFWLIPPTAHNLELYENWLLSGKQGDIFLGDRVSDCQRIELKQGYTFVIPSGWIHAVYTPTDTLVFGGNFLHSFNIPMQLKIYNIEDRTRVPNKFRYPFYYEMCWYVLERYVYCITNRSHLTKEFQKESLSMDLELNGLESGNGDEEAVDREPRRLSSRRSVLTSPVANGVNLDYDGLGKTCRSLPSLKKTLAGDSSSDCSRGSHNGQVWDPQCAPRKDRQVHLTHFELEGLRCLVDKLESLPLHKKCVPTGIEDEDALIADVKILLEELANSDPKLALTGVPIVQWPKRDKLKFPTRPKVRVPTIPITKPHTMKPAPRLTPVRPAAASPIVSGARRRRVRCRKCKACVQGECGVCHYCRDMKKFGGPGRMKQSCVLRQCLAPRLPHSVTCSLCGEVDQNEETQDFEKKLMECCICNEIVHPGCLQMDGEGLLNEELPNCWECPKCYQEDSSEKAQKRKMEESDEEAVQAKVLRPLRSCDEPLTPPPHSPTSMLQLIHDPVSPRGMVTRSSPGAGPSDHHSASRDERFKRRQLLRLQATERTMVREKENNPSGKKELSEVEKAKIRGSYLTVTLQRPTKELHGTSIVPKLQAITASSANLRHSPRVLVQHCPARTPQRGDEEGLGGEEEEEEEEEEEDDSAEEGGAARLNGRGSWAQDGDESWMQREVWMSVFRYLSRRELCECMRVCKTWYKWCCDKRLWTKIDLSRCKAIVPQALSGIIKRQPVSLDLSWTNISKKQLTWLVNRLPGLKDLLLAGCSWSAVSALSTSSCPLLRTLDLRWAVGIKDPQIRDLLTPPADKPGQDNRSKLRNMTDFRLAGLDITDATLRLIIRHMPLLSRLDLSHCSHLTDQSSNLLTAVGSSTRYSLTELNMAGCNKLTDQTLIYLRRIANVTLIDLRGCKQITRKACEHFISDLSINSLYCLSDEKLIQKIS
The experiment in a line: 2-Oxoglutarate oxygenase assay panel, AlphaScreen assay. The conditions noted are these: refers to Table S1. Format: biochemical.

The next data set has as its target T3, KDM4C (Homo sapiens, UniProt Q9H3R0).
T3 sequence (Q9H3R0 1-1056): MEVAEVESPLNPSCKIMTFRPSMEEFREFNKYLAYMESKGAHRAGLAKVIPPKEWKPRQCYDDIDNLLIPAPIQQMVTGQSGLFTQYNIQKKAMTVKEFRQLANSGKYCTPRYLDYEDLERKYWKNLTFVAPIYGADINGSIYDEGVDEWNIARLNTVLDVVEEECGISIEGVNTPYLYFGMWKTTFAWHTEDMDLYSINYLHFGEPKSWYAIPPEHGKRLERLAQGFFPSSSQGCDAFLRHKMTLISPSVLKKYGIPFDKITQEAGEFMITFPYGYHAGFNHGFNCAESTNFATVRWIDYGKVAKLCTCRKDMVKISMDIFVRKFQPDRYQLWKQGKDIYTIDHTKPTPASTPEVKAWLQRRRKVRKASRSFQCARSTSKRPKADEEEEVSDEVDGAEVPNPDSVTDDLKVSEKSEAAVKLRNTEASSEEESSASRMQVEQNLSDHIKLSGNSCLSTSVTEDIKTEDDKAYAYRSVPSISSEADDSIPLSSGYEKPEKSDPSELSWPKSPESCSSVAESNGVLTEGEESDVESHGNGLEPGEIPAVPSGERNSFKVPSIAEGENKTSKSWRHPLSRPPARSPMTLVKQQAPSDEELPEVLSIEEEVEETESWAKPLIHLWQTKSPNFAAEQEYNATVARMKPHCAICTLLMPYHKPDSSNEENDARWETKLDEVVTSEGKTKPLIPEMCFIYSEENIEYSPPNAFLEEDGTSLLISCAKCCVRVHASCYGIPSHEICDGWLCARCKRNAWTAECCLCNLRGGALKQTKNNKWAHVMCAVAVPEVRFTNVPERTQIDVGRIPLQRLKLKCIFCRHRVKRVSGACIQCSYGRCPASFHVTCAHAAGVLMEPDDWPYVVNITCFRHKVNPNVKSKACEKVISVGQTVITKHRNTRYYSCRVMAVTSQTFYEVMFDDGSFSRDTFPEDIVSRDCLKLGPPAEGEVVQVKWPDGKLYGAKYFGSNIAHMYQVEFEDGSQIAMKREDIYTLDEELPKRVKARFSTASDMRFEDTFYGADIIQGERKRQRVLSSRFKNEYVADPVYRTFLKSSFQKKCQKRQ
Described as above. It counts as biochemical. The conditions noted are these: AlphaScreen assay; ± SEM. Background: In Alpha technology, singlet oxygen from a donor bead excites a nearby acceptor bead.

The next data set concerns the target MINA53 (Homo sapiens, UniProt Q8IUF8). The experiment in a line: 2-Oxoglutarate oxygenase assay panel, RapidFire MS assay. It counts as biochemical. The conditions noted are these: read-out: pIC50 MINA53 (converted).
The nature of another data set: PAMPA. It counts as in vitro ADME. For orientation: PAMPA measures passive passage across an artificial lipid membrane.
For the next data set, the target named is EGLN1 (Homo sapiens, UniProt Q9GZT9). Put plainly: 2-Oxoglutarate oxygenase assay panel, MALDI-TOF assay. The following applies: read-out: pIC50 EGLN1 (converted). It counts as biochemical.
EGLN1, sequence (Q9GZT9 whole entry, species assumed): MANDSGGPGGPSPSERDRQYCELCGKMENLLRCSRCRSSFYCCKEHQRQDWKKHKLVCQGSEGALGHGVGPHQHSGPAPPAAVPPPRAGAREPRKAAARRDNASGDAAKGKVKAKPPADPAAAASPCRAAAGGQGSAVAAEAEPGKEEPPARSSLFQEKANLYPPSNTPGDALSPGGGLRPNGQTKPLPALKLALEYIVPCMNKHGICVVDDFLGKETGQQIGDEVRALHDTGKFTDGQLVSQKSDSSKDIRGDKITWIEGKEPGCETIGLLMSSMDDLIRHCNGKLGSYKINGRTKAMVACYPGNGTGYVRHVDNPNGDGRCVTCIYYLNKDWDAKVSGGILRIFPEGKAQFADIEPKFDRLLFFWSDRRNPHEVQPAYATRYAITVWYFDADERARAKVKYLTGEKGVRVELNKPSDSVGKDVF
A further data set deals with M3 (h) (Homo sapiens, UniProt P20309). Put plainly: Cerep Express Panel, antagonist radioligand. It counts as binding. The following applies: read-out: % Inhibition of reference (10 µM).
M3 (h), sequence (P20309 whole entry): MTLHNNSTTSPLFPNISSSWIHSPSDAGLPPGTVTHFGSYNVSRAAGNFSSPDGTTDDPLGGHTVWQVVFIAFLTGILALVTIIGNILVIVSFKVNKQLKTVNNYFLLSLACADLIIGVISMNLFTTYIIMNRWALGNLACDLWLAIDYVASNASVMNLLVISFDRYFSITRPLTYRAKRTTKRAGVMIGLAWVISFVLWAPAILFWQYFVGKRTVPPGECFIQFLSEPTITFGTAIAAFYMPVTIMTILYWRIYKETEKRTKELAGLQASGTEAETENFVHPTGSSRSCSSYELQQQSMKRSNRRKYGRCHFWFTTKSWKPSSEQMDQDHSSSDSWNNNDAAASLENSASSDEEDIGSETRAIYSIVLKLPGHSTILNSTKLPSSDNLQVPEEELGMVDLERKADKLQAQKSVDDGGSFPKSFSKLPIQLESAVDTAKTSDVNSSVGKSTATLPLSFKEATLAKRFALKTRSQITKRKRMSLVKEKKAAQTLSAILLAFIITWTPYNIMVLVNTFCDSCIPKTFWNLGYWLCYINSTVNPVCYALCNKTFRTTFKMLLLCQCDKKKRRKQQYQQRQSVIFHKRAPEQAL
A further data set addresses Y2 (h) (Homo sapiens, UniProt P49146). The experiment in a line: Cerep Express Panel, agonist radioligand. It counts as binding. The following applies: read-out: % Inhibition of reference (10 µM).
The test system of a further data set is GABA (non-selective). Put plainly: Cerep Express Panel, agonist radioligand. Format: binding.

VPAC1 (VIP1) (h), sequence (P32241 31-457): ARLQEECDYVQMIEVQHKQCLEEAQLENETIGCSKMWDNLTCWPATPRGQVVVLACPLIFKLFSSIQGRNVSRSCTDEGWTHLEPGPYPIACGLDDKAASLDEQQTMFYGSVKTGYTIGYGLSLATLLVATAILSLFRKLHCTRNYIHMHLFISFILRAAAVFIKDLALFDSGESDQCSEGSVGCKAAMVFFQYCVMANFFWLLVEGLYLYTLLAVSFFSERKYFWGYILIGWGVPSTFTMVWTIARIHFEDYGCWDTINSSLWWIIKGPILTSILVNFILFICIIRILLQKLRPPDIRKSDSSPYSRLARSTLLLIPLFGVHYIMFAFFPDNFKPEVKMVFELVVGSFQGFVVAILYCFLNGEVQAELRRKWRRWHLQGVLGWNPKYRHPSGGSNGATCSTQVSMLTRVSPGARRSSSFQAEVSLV
5-HT1A (h), sequence (P08908 whole entry): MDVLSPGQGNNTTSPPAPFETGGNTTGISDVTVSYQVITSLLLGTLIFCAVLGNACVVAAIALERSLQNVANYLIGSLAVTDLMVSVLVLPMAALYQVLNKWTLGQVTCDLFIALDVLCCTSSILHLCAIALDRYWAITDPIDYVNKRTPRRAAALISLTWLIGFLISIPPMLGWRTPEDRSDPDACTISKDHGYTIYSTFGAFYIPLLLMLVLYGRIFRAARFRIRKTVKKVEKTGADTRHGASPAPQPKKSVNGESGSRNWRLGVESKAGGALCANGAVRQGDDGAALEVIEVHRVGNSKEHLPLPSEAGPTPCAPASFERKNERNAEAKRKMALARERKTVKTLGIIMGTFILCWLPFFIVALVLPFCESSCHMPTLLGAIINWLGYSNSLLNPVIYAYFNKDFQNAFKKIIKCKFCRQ
MINA53, sequence (Q8IUF8 whole entry, species assumed): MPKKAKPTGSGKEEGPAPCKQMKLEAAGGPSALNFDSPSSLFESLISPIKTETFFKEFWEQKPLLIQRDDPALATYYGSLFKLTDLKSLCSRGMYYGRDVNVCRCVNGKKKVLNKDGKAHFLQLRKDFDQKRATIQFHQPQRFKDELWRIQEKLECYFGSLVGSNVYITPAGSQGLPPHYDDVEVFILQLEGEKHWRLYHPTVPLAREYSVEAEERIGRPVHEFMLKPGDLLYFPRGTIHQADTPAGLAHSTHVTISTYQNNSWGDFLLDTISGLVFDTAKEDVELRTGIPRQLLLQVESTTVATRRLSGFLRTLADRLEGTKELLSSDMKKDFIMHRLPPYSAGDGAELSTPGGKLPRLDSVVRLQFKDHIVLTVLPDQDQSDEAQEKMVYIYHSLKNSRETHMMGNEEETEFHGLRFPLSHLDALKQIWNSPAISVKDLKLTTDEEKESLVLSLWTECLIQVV
Y2 (h), sequence (P49146 whole entry): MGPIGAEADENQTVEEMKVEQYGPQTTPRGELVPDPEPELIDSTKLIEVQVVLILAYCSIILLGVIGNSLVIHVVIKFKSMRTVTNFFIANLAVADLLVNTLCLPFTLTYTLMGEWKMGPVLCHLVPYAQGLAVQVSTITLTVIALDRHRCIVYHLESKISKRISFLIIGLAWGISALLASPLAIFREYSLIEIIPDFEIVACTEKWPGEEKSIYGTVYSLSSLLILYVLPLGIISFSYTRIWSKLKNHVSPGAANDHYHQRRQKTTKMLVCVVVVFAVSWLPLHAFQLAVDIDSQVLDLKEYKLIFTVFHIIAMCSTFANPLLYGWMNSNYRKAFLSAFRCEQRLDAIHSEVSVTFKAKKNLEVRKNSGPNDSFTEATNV

Broadly, the inhibition is the drop in the measured response relative to a control, in per cent. On to `CCN(CCN(C)C)C(=O)CNCc1cc(C(N)=O)ccn1` [KDOAM-25], for which the inhibition at 10 µM was -12% at VPAC1 (VIP1) (h); 13% at dopamine transporter (h); -1% on CB1 (h); -1% on 5-HT1B; -7% on 5-HT1A (h); 5% at M3 (h). Also, on Y2 (h), the inhibition at 10 µM is -1%. For the same compound, the “% Inhibition of reference (10 µM)” value is reported as -15% in the data set on alpha 1 (non-selective) and -4% with GABA (non-selective). For the same compound, the “KDM2A IC50” value at KDM2A stood at 4.4 µM. Besides, the “pIC50 KDM4 C” value on KDM4C is listed as 5.3 ± 0.28. The IC50 at MINA53 and on EGLN1 was above 100 µM each time. Also, the “PAMPA pH 5” value in “PAMPA” (pH 5) is on record as below 0.3. In addition, the “PAMPA pH 6.5” value in “PAMPA” (pH 6.5) is below 0.23. Moreover, the “PAMPA pH 7.4” value in the data set “PAMPA” (pH 7.4) is reported as below 0.23.
